Measurements taken from the supplement of paper PMC10883282.

Legend:
Test in all cases: relative viability vs DMSO control (72 h) (fraction); higher = more viable cells
[1] = tested on: A204
Summary of the method: (§1)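 After seeding at densities set for 80–90% confluence in 384-well plates, sarcoma cell lines waited 24 h before 2.5 µl of serially diluted compound was added. Source plates held 10 mM down to 0.0002 mM. Plates were incubated 72 h at 37 °C with 5% CO2, with 0.1% DMSO vehicle and a 5 µM positive control, and relative viability was taken from ATPLite as percent growth averaged over up to triplicate wells, with 1 set as full and 0 as none.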

[2] = tested on: G401
Summary of the method: as §1

[3] = tested on: HS729
Summary of the method: as §1

[4] = tested on: KHOS-NP
Summary of the method: as §1

[5] = tested on: MES-SA
Summary of the method: as §1

[6] = tested on: RD
Summary of the method: as §1

[7] = tested on: SK-ES-1
Summary of the method: as §1

[8] = tested on: SK-LMS-1
Summary of the method: as §1

[9] = tested on: SW684
Summary of the method: as §1

[10] = tested on: SW872
Summary of the method: as §1

[11] = tested on: SYO-1
Summary of the method: as §1

[12] = tested on: VA-ES-BJ
Summary of the method: as §1

CC(C)(O)CNc1nc(Nc2ccnc(C(F)(F)F)c2)nc(-c2cccc(C(F)(F)F)n2)n1 [Enasidenib]
Details | relative viability
[1], 0.00017 µM | 1.12
[1], 0.00051 µM | 1.08
[1], 0.00152 µM | 1.11
[1], 0.00457 µM | 1.08
[1], 0.01372 µM | 1.1
[1], 0.04115 µM | 1.11
[1], 0.1235 µM | 1.1
[1], 0.3704 µM | 1.11
[1], 1.111 µM | 1.11
[1], 3.333 µM | 0.99
[1], 10 µM | 0.7231
[2], 0.00017 µM | 0.984
[2], 0.00051 µM | 0.973
[2], 0.00152 µM | 0.984
[2], 0.00457 µM | 1.03
[2], 0.01372 µM | 1.025
[2], 0.04115 µM | 1.01
[2], 0.1235 µM | 1.05
[2], 0.3704 µM | 1.02
[2], 1.111 µM | 0.98
[2], 3.333 µM | 0.994
[2], 10 µM | 0.958
[3], 0.00017 µM | 0.966
[3], 0.00051 µM | 0.974
[3], 0.00152 µM | 0.995
[3], 0.00457 µM | 1
[3], 0.01372 µM | 1.002
[3], 0.04115 µM | 0.985
[3], 0.1235 µM | 1.02
[3], 0.3704 µM | 0.941
[3], 1.111 µM | 0.994
[3], 3.333 µM | 1.01
[3], 10 µM | 0.928
[4], 0.00017 µM | 1.09
[4], 0.00051 µM | 1.1
[4], 0.00152 µM | 1.091
[4], 0.00457 µM | 1.09
[4], 0.01372 µM | 1.08
[4], 0.04115 µM | 1.08
[4], 0.1235 µM | 1.08
[4], 0.3704 µM | 1.06
[4], 1.111 µM | 1.04
[4], 3.333 µM | 1.06
[4], 10 µM | 1.05
[5], 0.00017 µM | 0.911
[5], 0.00051 µM | 0.947
[5], 0.00152 µM | 0.958
[5], 0.00457 µM | 0.956
[5], 0.01372 µM | 0.9539
[5], 0.04115 µM | 0.932
[5], 0.1235 µM | 0.9612
[5], 0.3704 µM | 0.945
[5], 1.111 µM | 0.926
[5], 3.333 µM | 0.918
[5], 10 µM | 0.808
[6], 0.00017 µM | 1.11
[6], 0.00051 µM | 1.125
[6], 0.00152 µM | 1.11
[6], 0.00457 µM | 1.08
[6], 0.01372 µM | 1.1
[6], 0.04115 µM | 1.1
[6], 0.1235 µM | 1.11
[6], 0.3704 µM | 1.08
[6], 1.111 µM | 1.09
[6], 3.333 µM | 1.09
[6], 10 µM | 1.04
[7], 0.00017 µM | 1.02
[7], 0.00051 µM | 1.04
[7], 0.00152 µM | 1.03
[7], 0.00457 µM | 1.04
[7], 0.01372 µM | 1.02
[7], 0.04115 µM | 0.996
[7], 0.1235 µM | 1.02
[7], 0.3704 µM | 0.968
[7], 1.111 µM | 0.921
[7], 3.333 µM | 0.893
[7], 10 µM | 0.663
[8], 0.00017 µM | 1.03
[8], 0.00051 µM | 0.979
[8], 0.00152 µM | 1.01
[8], 0.00457 µM | 1.02
[8], 0.01372 µM | 1.01
[8], 0.04115 µM | 1.01
[8], 0.1235 µM | 1.02
[8], 0.3704 µM | 1.06
[8], 1.111 µM | 1.13
[8], 3.333 µM | 1.11
[8], 10 µM | 0.83
[9], 0.00017 µM | 1.22
[9], 0.00051 µM | 1.21
[9], 0.00152 µM | 1.18
[9], 0.00457 µM | 1.179
[9], 0.01372 µM | 1.19
[9], 0.04115 µM | 1.2
[9], 0.1235 µM | 1.2
[9], 0.3704 µM | 1.17
[9], 1.111 µM | 1.21
[9], 3.333 µM | 1.11
[9], 10 µM | 1.01
[10], 0.00017 µM | 1.04
[10], 0.00051 µM | 1.07
[10], 0.00152 µM | 1.08
[10], 0.00457 µM | 1.07
[10], 0.01372 µM | 1.08
[10], 0.04115 µM | 1.06
[10], 0.1235 µM | 1.06
[10], 0.3704 µM | 1.068
[10], 1.111 µM | 1.07
[10], 3.333 µM | 1.07
[10], 10 µM | 1.06
[11], 0.00017 µM | 0.969
[11], 0.00051 µM | 0.959
[11], 0.00152 µM | 0.987
[11], 0.00457 µM | 0.982
[11], 0.01372 µM | 0.973
[11], 0.04115 µM | 0.992
[11], 0.1235 µM | 0.996
[11], 0.3704 µM | 0.979
[11], 1.111 µM | 0.624
[11], 3.333 µM | 0.968
[11], 10 µM | 0.828
[12], 0.00017 µM | 1.04
[12], 0.00051 µM | 1.06
[12], 0.00152 µM | 1.05
[12], 0.00457 µM | 1.03
[12], 0.01372 µM | 1.06
[12], 0.04115 µM | 1.05
[12], 0.1235 µM | 1.06
[12], 0.3704 µM | 1.07
[12], 1.111 µM | 1.05
[12], 3.333 µM | 1.02
[12], 10 µM | 0.976
